Results on 1 molecule are retold here after patent US9315522B2, “Antibacterial compounds” (JANSSEN SCIENCES IRELAND UC, priority 2012, dated 2016).

Data set [1] can be described thus: Thermodynamic solubility (pH solubility profiling). It counts as physicochemical. The note with it: thermodynamic from solid. As to the method: The pH solubility profiling was carried out at ambient temperature for a period of 4 days. A saturation solubility study was carried out in order to determine maximum solubility in a particular buffer solution. The compound was added to respective buffer solution until saturation point is reached. This was followed by shaking the flask for 4 days at ambient temperature. After 4 days, the solutions were filtered and injected on UPLC and the concentration was determined using a generic HPLC method.

The subject of data set [2] is Staphylococcus aureus ATCC 29213. In words: Antibacterial susceptibility testing, IC90 determination (STA). Type of data set: cell-based. The note with it: Staphylococcus aureus, ATCC29213, Staphylococcus aureus ATCC 29213, broth microdilution, resazurin; read-out: STA (361.159) IC90. An outline of the steps:
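S. aureus ATCC 29213 tested by broth microdilution in Mueller-Hinton broth, 5×10^5 CFU/ml, two-fold compound dilutions typically 63 to 0.49 μM, 1.25% DMSO, 16-20 h at 35° C. Growth read fluorometrically with resazurin (ex 540/em 590 nm); IC90 in μg/ml is 90% growth-inhibitory concentration.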

In another data set the test system is S. aureus. In words: Antibacterial susceptibility testing, IC90 determination with 10% human serum (STA + 10% HS). It counts as cell-based, Staphylococcus aureus. The note with it: Staphylococcus aureus, human serum at final concentration of 10%, read-out: STA + 10% HS (361.169) IC90. Put shortly: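 Broth microdilution in Mueller-Hinton broth with 10% human serum, 5×10^5 CFU/ml S. aureus, two-fold compound dilutions (typically 63 to 0.49 μM), 1.25% DMSO, 16-20 h at 35° C. Growth read fluorometrically with resazurin (ex 540/em 590 nm); IC90 in μg/ml is the 90% growth-inhibitory concentration.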

In brackets after ≈: the same amount, converted by molar mass.

As for `O=C1CNCc2cc(/C=C/C(=O)N3CC4C=C(c5nccs5)CC4C3)cnc2N1` (stereo not drawn) [compound 48], the solubility (thermodynamic) at 4 days is 440 µg/mL (≈ 1.08 mM) in data set [1] (aqueous buffer, Buffer pH 4, ambient temperature); above 1220 µg/mL in data set [1] (aqueous buffer, Buffer pH 7.4, ambient temperature); above 2470 µg/mL in data set [1] (aqueous with cosolvent or surfactant or cyclodextrin, 10% HP-β-CD buffer pH 4, ambient temperature); above 1380 µg/mL in data set [1] (aqueous with cosolvent or surfactant or cyclodextrin, 10% HP-β-CD buffer pH 7.4, ambient temperature); above 4720 µg/mL in data set [1] (aqueous with cosolvent or surfactant or cyclodextrin, 20% HP-β-CD buffer pH 4, ambient temperature); above 2410 µg/mL in data set [1] (aqueous with cosolvent or surfactant or cyclodextrin, 20% HP-β-CD buffer pH 7.4, ambient temperature). This molecule also registered a solubility (thermodynamic) at 4 days in data set [1] (pH 2, simulated gastric fluid, 0.01N HCl, ambient temperature) above 2560 µg/mL. Moreover, the IC90 in data set [2] is 0.24 µg/mL (≈ 0.000589 mM); in the data set on S. aureus it was 0.21 µg/mL.
